Data taken from patent US20170088520A1, “DEUBIQUITINASE INHIBITORS” (PharmAkea, Inc., priority 2014, published 2017).

Experiments:
[1] = biological target: T1, DUB activity in cells (NCI-H929, Z138, MM.1S, A375) (Homo sapiens, UniProt Q93008); test: HA-Ubiquitin-Vinylsulfone (HA-Ub-VS) cell labeling assay; assay type: cell-based; details: compound tested at 5 μM; HA-Ub-VS labeling of USP9x in cells
T1 construct: endogenous in cells; host or cells: NCI-H929, Z138, MM.1S, A375
Method in brief: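 NCI-H929, Z138, MM.1S or A375 cells (1–2×10^6) treated 2–6 h at 37 °C with compound in 0.5% DMSO, here 5 μM. Lysates labeled with HA-Ub-VS for 15–60 min at 37 °C. Labeled DUBs resolved by SDS-PAGE and quantified by anti-HA and anti-β-actin immunoblot with infrared detection.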

[2] = system: Mcl-1 expression in cells (NCI-H929, Z138, MM.1S, A-375); test: Analysis of Mcl-1 expression by Western blotting; assay type: cell-based; details: compound tested at 5 μM; Western blot
Method in brief: (§1)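 NCI-H929, Z138, MM.1S and A-375 cells were treated with compounds at 5 μM, and lysates were Western blotted with anti-Mcl-1 and anti-PARP antibodies, quantified by infrared fluorescence. Activity is a significant drop in Mcl-1 and the appearance of cleaved PARP, each relative to vehicle-treated cells.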

[3] = system: PARP cleavage in cells (NCI-H929, Z138, MM.1S, A-375); test: Analysis of PARP cleavage by Western blotting; assay type: cell-based; details: compound tested at 5 μM; Western blot
Method in brief: as §1

[4] = system: MM.1S myeloma tumor cells; test: In vivo tumor growth assay (xenograft model); details: SCID Beige mice injected with MM.1S myeloma tumor cells; 15 mpk three times per week
Protocol: Example B-3: In Vivo Tumor Growth Assay
A xenograft model is used to test efficacy of compounds in inhibiting tumor growth. Briefly, 1×10^6-2×10^7 tumor cell suspensions (Z138, A375, MM.1S, VCaP) are injected subcutaneously into the flank regions of mice (SCID, NSG, nude) in an equal volume of matrigel. Tumor volumes are measured using calipers and when the tumor volumes are ˜100 mm^3, test compound is administered every 1-3 days by oral gavage or by injection (intraperitoneal, intravenous, subcutaneous) until tumor volumes of the vehicle treated animals are ˜1000-2000 mm^3. Inhibition of primary tumor growth is evident as a significant decrease in tumor volume relative to the vehicle treated mice.
Following the above protocol using SCID Beige mice injected with MM.1S myeloma tumor cells and dosing with Compound 74 at 15 mpk three times per week, an approximately 50% reduction in tumor volume was observed

T1 sequence (Q93008 whole entry): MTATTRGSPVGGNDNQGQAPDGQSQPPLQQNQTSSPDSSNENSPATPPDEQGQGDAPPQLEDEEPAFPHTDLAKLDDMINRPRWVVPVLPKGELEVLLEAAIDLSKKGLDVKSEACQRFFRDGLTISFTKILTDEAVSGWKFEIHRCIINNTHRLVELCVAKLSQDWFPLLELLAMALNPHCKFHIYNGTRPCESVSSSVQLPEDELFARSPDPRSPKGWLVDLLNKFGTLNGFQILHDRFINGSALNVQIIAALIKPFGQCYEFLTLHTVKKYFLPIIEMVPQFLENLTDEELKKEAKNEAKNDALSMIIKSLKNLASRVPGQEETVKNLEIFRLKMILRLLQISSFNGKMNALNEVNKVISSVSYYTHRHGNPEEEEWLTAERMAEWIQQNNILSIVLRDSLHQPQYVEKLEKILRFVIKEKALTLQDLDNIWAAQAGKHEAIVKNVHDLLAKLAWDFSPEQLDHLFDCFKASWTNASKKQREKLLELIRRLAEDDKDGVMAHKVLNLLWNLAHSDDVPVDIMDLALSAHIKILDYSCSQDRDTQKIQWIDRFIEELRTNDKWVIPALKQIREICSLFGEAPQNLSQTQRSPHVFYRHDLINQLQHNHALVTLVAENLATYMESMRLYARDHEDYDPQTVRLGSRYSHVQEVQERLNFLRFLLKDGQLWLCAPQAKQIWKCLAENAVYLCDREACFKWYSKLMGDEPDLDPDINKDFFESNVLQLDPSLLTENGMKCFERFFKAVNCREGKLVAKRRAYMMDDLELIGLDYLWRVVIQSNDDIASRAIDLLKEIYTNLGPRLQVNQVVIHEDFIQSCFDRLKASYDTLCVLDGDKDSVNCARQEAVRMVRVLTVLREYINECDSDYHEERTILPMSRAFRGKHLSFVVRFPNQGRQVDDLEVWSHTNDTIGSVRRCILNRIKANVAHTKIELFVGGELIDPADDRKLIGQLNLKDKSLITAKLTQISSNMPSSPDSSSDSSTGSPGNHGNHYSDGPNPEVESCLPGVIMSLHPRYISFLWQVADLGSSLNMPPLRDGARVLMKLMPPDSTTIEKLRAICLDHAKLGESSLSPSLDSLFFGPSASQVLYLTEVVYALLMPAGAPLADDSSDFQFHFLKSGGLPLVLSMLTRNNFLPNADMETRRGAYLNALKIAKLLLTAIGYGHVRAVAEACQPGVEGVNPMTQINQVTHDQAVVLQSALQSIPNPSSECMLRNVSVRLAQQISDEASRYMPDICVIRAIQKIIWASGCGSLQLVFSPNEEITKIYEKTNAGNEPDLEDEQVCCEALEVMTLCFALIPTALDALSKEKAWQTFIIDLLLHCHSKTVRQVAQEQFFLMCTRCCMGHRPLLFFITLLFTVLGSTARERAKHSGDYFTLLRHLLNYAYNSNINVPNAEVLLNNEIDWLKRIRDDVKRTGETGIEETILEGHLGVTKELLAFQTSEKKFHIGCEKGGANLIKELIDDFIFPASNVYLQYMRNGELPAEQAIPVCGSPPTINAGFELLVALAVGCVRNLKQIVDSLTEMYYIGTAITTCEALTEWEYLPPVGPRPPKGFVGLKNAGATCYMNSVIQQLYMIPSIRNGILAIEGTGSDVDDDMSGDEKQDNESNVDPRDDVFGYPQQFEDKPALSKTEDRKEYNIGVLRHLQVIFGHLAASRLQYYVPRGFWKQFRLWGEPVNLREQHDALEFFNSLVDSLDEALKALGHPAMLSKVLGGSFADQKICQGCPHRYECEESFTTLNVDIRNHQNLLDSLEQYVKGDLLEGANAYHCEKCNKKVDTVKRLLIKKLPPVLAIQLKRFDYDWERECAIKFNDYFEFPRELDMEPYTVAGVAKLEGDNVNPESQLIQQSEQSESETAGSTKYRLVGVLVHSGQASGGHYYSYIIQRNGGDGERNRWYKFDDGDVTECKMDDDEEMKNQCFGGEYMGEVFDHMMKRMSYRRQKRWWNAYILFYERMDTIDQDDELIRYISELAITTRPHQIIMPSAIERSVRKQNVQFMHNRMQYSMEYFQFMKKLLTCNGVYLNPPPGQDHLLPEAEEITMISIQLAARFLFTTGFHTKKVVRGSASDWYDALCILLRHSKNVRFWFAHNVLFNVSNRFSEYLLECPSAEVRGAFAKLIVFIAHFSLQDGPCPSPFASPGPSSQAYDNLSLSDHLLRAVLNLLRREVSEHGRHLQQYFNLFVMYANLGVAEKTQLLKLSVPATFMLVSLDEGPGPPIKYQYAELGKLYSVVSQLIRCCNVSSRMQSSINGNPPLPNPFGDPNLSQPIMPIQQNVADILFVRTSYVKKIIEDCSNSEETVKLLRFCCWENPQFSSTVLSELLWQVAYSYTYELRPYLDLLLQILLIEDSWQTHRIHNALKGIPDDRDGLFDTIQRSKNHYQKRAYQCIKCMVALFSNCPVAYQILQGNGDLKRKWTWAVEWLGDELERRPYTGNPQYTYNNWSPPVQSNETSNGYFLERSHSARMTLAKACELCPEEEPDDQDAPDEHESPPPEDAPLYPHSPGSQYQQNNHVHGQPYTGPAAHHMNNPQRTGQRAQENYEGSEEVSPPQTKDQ

| inhibition at 5 µM [1] [%] | SMILES | inhibition at 5 µM [2] [%] | PARP cleavage % Inhibition [3] | reduction in tumor volume [4] |
| --- | --- | --- | --- | --- |
| ≥ 75 | N#C/C(=C\c1ncc(Br)cc1Br)C(=O)NC1(c2ccc(-c3cnc4[nH]ccc4c3)cc2)CCCC1 [Compound 59, (E)-N-(1-(4-(1H-pyrrolo[2,3-b]pyridin-5-yl)phenyl)cyclopentyl)-2-cyano-3-(3,5-dibromopyridin-2-yl)acrylamide] | ≥ 75 | A (A is ≧75% inhibition) |  |
| ≥ 75 | N#C/C(=C\c1ncc(Br)cc1Br)C(=O)NC1(c2cccc(Cl)c2)CCCC1 [Compound 20, (E)-N-(1-(3-Chlorophenyl)cyclopentyl)-2-cyano-3-(3,5-dibromopyridin-2-yl)acrylamide] | ≥ 75 | A (A is ≧75% inhibition) |  |
| ≥ 75 | N#C/C(=C\c1ncc(Br)cc1Br)C(=O)NC1(c2ccc(C#CCN3CCOCC3)cc2)CCCC1 [Compound 50, (E)-2-cyano-3-(3,5-dibromopyridin-2-yl)-N-(1-(4-(3-morpholinoprop-1-yn-1-yl)phenyl)cyclopentyl)acrylamide] | ≥ 75 | A (A is ≧75% inhibition) |  |
| < 25 | CC(C)(C)OC(=O)c1cccc(C2(NC(=O)/C(C#N)=C/c3ncc(Br)cc3Br)CCCC2)c1 [Compound 52, (E)-tert-butyl 3-(1-(2-cyano-3-(3,5-dibromopyridin-2-yl)acrylamido)cyclopentyl)benzoate] | < 25 | D (D is <25% inhibition) |  |
| ≥ 75 | N#C/C(=C\c1ncc(Br)cc1Br)C(=O)NC1(c2ccc(-c3ccc(C(F)(F)F)nc3)cc2)CCCC1 [Compound 68, (E)-2-cyano-3-(3,5-dibromopyridin-2-yl)-N-(1-(4-(6-(trifluoromethyl)pyridin-3-yl)phenyl)cyclopentyl)acrylamide] | ≥ 75 | A (A is ≧75% inhibition) |  |

Second part, the compound before the results:

| SMILES | inhibition at 5 µM [1] [%] | inhibition at 5 µM [2] [%] | PARP cleavage % Inhibition [3] | reduction in tumor volume [4] |
| --- | --- | --- | --- | --- |
| N#C/C(=C\c1cccc(Br)n1)C(=O)NC1(c2ccc(-c3cccc(C(=O)O)c3)cc2)CCCC1 [Compound 74, (E)-4′-(1-(3-(6-bromopyridin-2-yl)-2-cyanoacrylamido)cyclopentyl)-[1,1′-biphenyl]-3-carboxylic acid] | 50 to 75 | 50 to 75 | A (A is ≧75% inhibition) | approximately 50% |
| N#C/C(=C\c1cccc(Br)n1)C(=O)NC1(c2ccccc2)CCC1 [Compound 3, (E)-3-(6-Bromopyridin-2-yl)-2-cyano-N-(1-phenylcyclobutyl)acrylamide] | < 25 | < 25 | B (B is 50% to 75% inhibition) |  |
| N#C/C(=C\c1cccc(Br)n1)C(=O)NC1(c2ccccc2)CCOCC1 [Compound 18, (E)-3-(6-Bromopyridin-2-yl)-2-cyano-N-(4-phenyltetrahydro-2H-pyran-4-yl)acrylamide] | 50 to 75 | 25 to 50 | B (B is 50% to 75% inhibition) |  |
| N#C/C(=C\c1cccc(Br)n1)C(=O)NC1(c2ccc(-c3ccc(CC(=O)O)cc3)cc2)CCCC1 [Compound 90, (E)-2-(4′-(1-(3-(6-bromopyridin-2-yl)-2-cyanoacrylamido)cyclopentyl)-[1,1′-biphenyl]-4-yl)acetic acid] | < 25 | 25 to 50 | D (D is <25% inhibition) |  |
| COc1ccc(C2(NC(=O)/C(C#N)=C/c3cccc(Br)n3)CCCC2)cc1 [Compound 16, (E)-3-(6-Bromopyridin-2-yl)-2-cyano-N-(1-(4-methoxyphenyl)cyclopentyl)acrylamide] | 50 to 75 | 50 to 75 | A (A is ≧75% inhibition) |  |
| N#C/C(=C\c1cccc(C#CCn2cccn2)n1)C(=O)NC1(c2ccccc2)CCCC1 [Compound 43, (E)-3-(6-(3-(1H-pyrazol-1-yl)prop-1-yn-1-yl)pyridin-2-yl)-2-cyano-N-(1-phenylcyclopentyl)acrylamide] | ≥ 75 | ≥ 75 | A (A is ≧75% inhibition) |  |
| N#C/C(=C\c1cccc(Br)n1)C(=O)NC1(c2ccncc2)CCCC1 [Compound 3-2, (E)-3-(6-bromopyridin-2-yl)-2-cyano-N-(1-(pyridin-4-yl)cyclopentyl) acrylamide] | 25 to 50 | 50 to 75 | A (A is ≧75% inhibition) |  |
| N#C/C(=C\c1cccc(C#CC2(O)CCCC2)n1)C(=O)NC1(c2ccccc2)CCCC1 [Compound 45] | 50 to 75 | ≥ 75 | A (A is ≧75% inhibition) |  |
| N#C/C(=C\c1cccc(Br)n1)C(=O)NC1(c2cccc(CO)c2)CCCC1 [Compound 81, (E)-3-(6-bromopyridin-2-yl)-2-cyano-N-(1-(3-(hydroxymethyl)phenyl)cyclopentyl)acrylamide] | 50 to 75 | 25 to 50 | A (A is ≧75% inhibition) |  |
